Measurements from patent publication US20240368133A1, “Compounds for the Treatment of Pain, in Particular, Neuropathic Pain, and/or Other Diseases or Disorders that are Associated with AT2R and/or AT2R Mediated Signaling” (Confo Therapeutics N.V., priority 2021, published 2024).

Experiments:
[1] = Liver microsomal stability, dog; type: in vitro ADME; details: male, Beagle, pH 7.4, liver microsomes
Experimental: Mouse hepatic microsomes were isolated from pooled, perfused livers of male CD1 mice. Rat hepatic microsomes were isolated from pooled, perfused livers of male Sprague Dawley rats. Dog hepatic microsomes were isolated from pooled, perfused livers of male Beagle dogs. The batches of microsomes were tested for quality control using Testosterone, Propranolol and Caffeine as reference compounds.
A 10 mM stock solution of compound in DMSO is diluted three-fold in DMSO. This pre-diluted compound solution is then further diluted to 2 μM in a 50 mM phosphate buffer (PBS, pH 7.4) and pre-warmed at 37° C. This compound dilution is mixed F2 with microsomal/cofactor mix at 37° C. under shaking at 300 rpm. Final reaction conditions are: 100 μL incubation volume, 1 μM of test compound (in duplicate), <0.1% DMSO, 0.5 mg/mL microsomes, 0.6 U/mL Glucose-6-phosphate-dehydrogenase (G6PDH, Roche, 10127671001), 3.3 mM MgCl2 (Sigma, M2670), 3.3 mM glucose-6-phosphate (Sigma, G-7879) and 1.3 mM NADP+ (Sigma, N-0505).
After 60 min of incubation at 300 rpm and 37° C., the reaction was stopped with 3 volumes of STOP solution (acetonitrile/MeOH 2/1 with diclofenac as internal standard). For the time point zero, 3 volumes of STOP solution were added to the compound dilution before the microsome mix was added. Six time points over 60 minutes have been analyzed. The samples of all time points were centrifuged, filtered and the supernatant analyzed by LCMS/MS (systems API4000).
The instrument responses (peak areas/IS peak area) were referenced to the zero time-point samples (considered as 100%) in order to determine the percentage of compound remaining.
Testosterone (1 μM) and Propranolol and Caffeine (1 μM) were used as reference compounds, being unstable and stable compounds respectively. If the microsomal stability values for these controls are not in the range determined by the historical data, the assay is not validated. The solubility of the compound in the final test concentration in 50 mM buffer pH 7.4 is checked by microscope to indicate whether precipitation is observed or not. If a precipitate is observed, no data of microsomal stability is generated.

[2] = Metabolic stability in hepatocytes, human; type: in vitro ADME; details: pooled cryopreserved hepatocytes, read-out: Human Clint (μL/min/10^6 cells)
[3] = Thermodynamic solubility protocol 1 (PBS pH 7.4, citrate buffer pH 3.0); type: physicochemical; details: 25° C.
Experimental: In a 8 mL glass vial, 1-2 mg of dry matter of the test compound were mixed with the suitable buffers (phosphate-buffered saline pH 7.4 (138 mM NaCl, 2.7 mM KCl, 10 mM K-phosphate) or 100 mM citrate buffer pH 3.0) to reach a theoretical concentration of 4 mM. The solutions were allowed to further equilibrate at 25° C. on a thermostatic shaker. After 4 and 24 hours of shaking, respectively, the incubation mixtures were filtered through HTS filter plates using a vacuum manifold. The filtrates of test compounds were diluted 2-fold with acetonitrile with 4% DMSO before measuring. In parallel, using a 20 mM DMSO stock solution, compound dilutions in 50% acetonitrile/buffer were prepared to the theoretical concentrations of 0 μM (blank), 10 μM, 25 μM, 50 μM, 100 μM and 200 μM with 2% final DMSO to generate calibration curves.
Ondansetron (Sigma Aldrich USA, cat #03639) was used as a reference to control proper assay performance. 200 μl of each sample were transferred to a 96-well plate and solubility was measured in a 200-550 nm range (in steps of 5 nm). The measurements were performed using a Spectra Max Plus reader in UV-Vis mode. Acquisition and analysis of the data were performed using SoftMax Pro v.5.4 (Molecular Devices) and Excel 2010 data analysis software. Proper absorbance wavelengths for calculations were selected for each compound manually based on absorbance maximums (absolute absorbance unit values for the minimum and maximum concentration points within 0-3 OD range). Each of the final datasets was additionally visually evaluated by the operator and goodness of fit (R2) is calculated for each calibration curve.

[4] = Thermodynamic solubility protocol 2 (FaSSIF, FeSSIF); type: physicochemical; details: 25° C.
Experimental: In a 8 mL glass vial, 1-2 mg of dry matter of the test compound were mixed with the suitable buffers (Fed State Simulated Intestine Fluid (FeSSIF) or Fasted State Simulated Intestine Fluid (FaSSIF)) to reach a theoretical concentration of 4 mM. The solutions were allowed to further equilibrate at 25° C. on a thermostatic shaker. After 4 and 24 hours of shaking, respectively, the incubation mixtures were filtered through HTS filter plates using a vacuum manifold. The filtrates of test compounds were diluted 500-fold with acetonitrile/buffer mixtures with 2% DMSO before measuring. In parallel, using a 20 mM DMSO stock solution, compound dilutions in 50% acetonitrile/buffer (v/v) were prepared to the theoretical concentrations of 0 μM (blank), 10 μM, 25 μM, 50 μM, 100 μM and 200 μM with 2% final DMSO to generate calibration curves. Calibration standards were diluted 100-fold with 50% acetonitrile/water (v/v) mixes before LC-MS/MS measurement (systems API4000 QTRAP).

microsomal CLint at 1 µM [1] [µL/min/mg] | hepatocyte CLint at 1 µM [2] [µL/min/1e6 cells] | TSOL pH 3.0 ([3]; time point 4 h) [μM] | TSOL pH 7.4 ([3]; time point 4 h) [μM] | TSOL pH 3.0 ([3]; time point 24 h) [μM] | TSOL pH 7.4 ([3]; time point 24 h) [μM] | TSOL FaSSIF pH 6.5 ([4]; time point 4 h) [μM] | TSOL FeSSIF pH 5.0 ([4]; time point 4 h) [μM] | TSOL FaSSIF pH 6.5 ([4]; time point 24 h) [μM] | TSOL FeSSIF pH 5.0 ([4]; time point 24 h) [μM] | SMILES
< 11.5 | 5.8 |  |  |  |  |  |  |  |  | CC(C)Cc1cc(F)c(-c2nn[nH]n2)c(N2CCN(Cc3ccccn3)[C@@H](C)C2)c1 [Compound A-217, (2S)-4-[3-fluoro-5-isobutyl-2-(2H-tetrazol-5-yl)phenyl]-2-methyl-1-(2-pyridylmethyl)piperazine]
< 11.7 | < 2.9 | ≥400 | >400 | ≥400 | >400 | >400 | >400 | >400 | >400 | CC(C)Cc1cc(F)c(-c2nn[nH]n2)c(N2CCN(Cc3cccnn3)[C@@H](C)C2)c1 [Compound A-174, 3-[[(2S)-4-[3-fluoro-5-isobutyl-2-(2H-tetrazol-5-yl)phenyl]-2-methyl-piperazin-1-yl]methyl]pyridazine]
